Source: the supplement of paper PMC10307832

Columns and labels:
Assay in all cases: relative viability (nuclei count vs DMSO), 5 days (fraction); higher = more cells survive
Shikonin + Dasatinib = compound: CC(C)=CC[C@@H](O)C1=CC(=O)c2c(O)ccc(O)c2C1=O [Shikonin] + Cc1nc(Nc2ncc(C(=O)Nc3c(C)cccc3Cl)s2)cc(N2CCN(CCO)CC2)n1 [Dasatinib] (partner 0.075 µM)
Outline: (§1)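 The day after seeding in 1536-well plates, lung cancer cell lines were treated by pin tool with a single drug, or with a fixed anchor-drug dose together with five library-drug doses (not always all listed) in √10 steps. After 5 days, a combined fix-and-stain solution (final 0.05% Triton X-100, 1% formaldehyde, 1 ug/ml Hoechst) was added. Nuclei counted on 4× images gave relative viability as treated counts over vehicle counts, reported as the median of duplicate plates.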

[1] = compound: CC(C)N(CCCNC(=O)Nc1ccc(C(C)(C)C)cc1)C[C@H]1O[C@@H](n2ccc3c(N)ncnc32)[C@H](O)[C@@H]1O + CS(=O)(=O)N1CCN(Cc2cc3nc(-c4cccc5[nH]ncc45)nc(N4CCOCC4)c3s2)CC1 [Pictilisib] (partner 1 µM)
Outline: as §1

Shikonin + Olaparib = compound: CC(C)=CC[C@@H](O)C1=CC(=O)c2c(O)ccc(O)c2C1=O [Shikonin] + O=C(c1cc(Cc2n[nH]c(=O)c3ccccc23)ccc1F)N1CCN(C(=O)C2CC2)CC1 [Olaparib] (partner 8 µM)
Outline: as §1

[2] = compound: CC(C)N(CCCNC(=O)Nc1ccc(C(C)(C)C)cc1)C[C@H]1O[C@@H](n2ccc3c(N)ncnc32)[C@H](O)[C@@H]1O + O=C(c1cc(Cc2n[nH]c(=O)c3ccccc23)ccc1F)N1CCN(C(=O)C2CC2)CC1 [Olaparib] (partner 8 µM)
Outline: as §1

## UMC-11
Shikonin + Dasatinib; first compound 0.01 µM
  relative viability: 0.476
Shikonin + Dasatinib; first compound 0.1 µM
  relative viability: 0.49
Shikonin + Dasatinib; first compound 0.3162 µM
  relative viability: 0.459
Shikonin + Dasatinib; first compound 1 µM
  relative viability: 0.503
[1]; first compound 0.08 µM
  relative viability: 0.683
[1]; first compound 0.253 µM
  relative viability: 0.662
[1]; first compound 0.8 µM
  relative viability: 0.783
[1]; first compound 2.53 µM
  relative viability: 0.805
[1]; first compound 8 µM
  relative viability: 0.745
Shikonin + Olaparib; first compound 0.01 µM
  relative viability: 0.332
Shikonin + Olaparib; first compound 0.1 µM
  relative viability: 0.374
Shikonin + Olaparib; first compound 0.3162 µM
  relative viability: 0.346
Shikonin + Olaparib; first compound 1 µM
  relative viability: 0.374
[2]; first compound 0.08 µM
  relative viability: 0.407
[2]; first compound 0.253 µM
  relative viability: 0.447
[2]; first compound 0.8 µM
  relative viability: 0.378
[2]; first compound 2.53 µM
  relative viability: 0.327
[2]; first compound 8 µM
  relative viability: 0.323
